Measurements as given in PubChem BioAssay (NCI).
Several values for one entry are separate records, joined by “and”; a condition that tells them apart may be missing. Equal entries are not always repeated.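 Results reflect a 48-hour exposure of cells in 96-well plates to compound at five concentrations. The concentration for 50% growth inhibition is given as GI50. TGI: total growth inhibition.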

Legend:
Experiment in all cases: NCI tumour cell line growth inhibition, 48 h
CCRF-CEM leukemia = tested on: CCRF-CEM leukemia
HS 578T breast = tested on: HS 578T breast
786-0 renal = tested on: 786-0 renal
HCT-116 colon = tested on: HCT-116 colon
SW-620 colon = tested on: SW-620 colon
RXF 393 renal = tested on: RXF 393 renal
SR leukemia = tested on: SR leukemia
MOLT-4 leukemia = tested on: MOLT-4 leukemia
NCI-H522 lung = tested on: NCI-H522 lung
T-47D breast = tested on: T-47D breast

Cc1cccc(Nc2cn(CCOc3ccccc3)c(=O)[nH]c2=O)c1
TGI (CCRF-CEM leukemia): > 100 µM | TGI (HS 578T breast): > 100 µM | TGI (786-0 renal): > 100 µM | TGI (HCT-116 colon): > 100 µM | TGI (SW-620 colon): > 100 µM | TGI (RXF 393 renal): > 100 µM | TGI (SR leukemia): > 100 µM | TGI (MOLT-4 leukemia): > 100 µM

CC(=O)NC1C(OCC(=O)NC(C)C(=O)NC(CCC(=O)NCCCCCNc2ccc([N+](=O)[O-])c3[nH]c4ccccc4c(=O)c23)C(N)=O)C(O)C(CO)OC1(C)OCc1ccccc1 (stereo unspecified)
TGI (CCRF-CEM leukemia): > 50 µM | TGI (HS 578T breast): > 50 µM | TGI (NCI-H522 lung): > 50 µM | TGI (786-0 renal): > 50 µM | TGI (HCT-116 colon): > 50 µM | TGI (T-47D breast): > 50 µM | TGI (SW-620 colon): > 50 µM | TGI (RXF 393 renal): 19.5 µM | TGI (MOLT-4 leukemia): > 50 µM

NS(=O)(=O)c1ccc(CNC(=S)NC(=O)Nc2ccc(Cl)c(Cl)c2)cc1
TGI (CCRF-CEM leukemia): 43.4 µM | TGI (HS 578T breast): 38.1 µM | TGI (NCI-H522 lung): 34.2 µM | TGI (786-0 renal): 34.3 µM | TGI (HCT-116 colon): 32.6 µM | TGI (T-47D breast): 60.2 µM | TGI (SW-620 colon): 44.7 µM | TGI (RXF 393 renal): 84.7 µM | TGI (MOLT-4 leukemia): 40.2 µM

CCN(CC)P1(=S)Oc2ccc3ccccc3c2-c2c(ccc3ccccc23)O1
TGI (CCRF-CEM leukemia): > 100 µM | TGI (HS 578T breast): > 100 µM | TGI (NCI-H522 lung): > 100 µM | TGI (786-0 renal): > 100 µM | TGI (HCT-116 colon): > 100 µM | TGI (T-47D breast): > 100 µM | TGI (SW-620 colon): > 100 µM | TGI (SR leukemia): > 100 µM | TGI (MOLT-4 leukemia): > 100 µM

C[Si](C)(C)C#C[I+]c1ccccc1
TGI (CCRF-CEM leukemia): 75.8 µM | TGI (NCI-H522 lung): 23.3 µM | TGI (786-0 renal): > 100 µM | TGI (HCT-116 colon): 56.6 µM | TGI (RXF 393 renal): > 100 µM | TGI (MOLT-4 leukemia): > 100 µM

COc1ccc2cc(C(=O)NCCc3ccccc3)ccc2c1OC
TGI (HS 578T breast): > 100 µM | TGI (786-0 renal): > 100 µM | TGI (HCT-116 colon): > 100 µM | TGI (T-47D breast): > 100 µM | TGI (SW-620 colon): > 100 µM | TGI (RXF 393 renal): 70.7 µM | TGI (SR leukemia): > 100 µM | TGI (MOLT-4 leukemia): > 100 µM

N#Cc1nn(-c2ccc(Cl)cc2)c(N)c2c(=N)n3nc(-c4ccccc4)cc3nc12
TGI (CCRF-CEM leukemia): > 100 µM | GI50 (NCI-H522 lung): 36.4 µM | TGI (NCI-H522 lung): > 100 µM | TGI (786-0 renal): > 100 µM | TGI (HCT-116 colon): > 100 µM | TGI (SW-620 colon): > 100 µM | TGI (RXF 393 renal): 76.8 µM | TGI (SR leukemia): 10.7 µM | TGI (MOLT-4 leukemia): > 100 µM

O=c1c(-c2ccccc2)c[nH]c2cc([N+](=O)[O-])c(/C(Cl)=C/c3ccccc3)cc12
TGI (CCRF-CEM leukemia): 20.3 µM | TGI (NCI-H522 lung): 16.3 µM | TGI (HCT-116 colon): 29.9 µM | TGI (SW-620 colon): 26.8 µM | TGI (RXF 393 renal): 29.5 µM | TGI (MOLT-4 leukemia): 24 µM

COC(=O)c1nc2c(C)c(O)c(O)c([C@H](C)CCC=C(C)C)c2o1
TGI (CCRF-CEM leukemia): 29.6 µM | TGI (HS 578T breast): 87.4 µM | TGI (786-0 renal): 39.5 µM | TGI (HCT-116 colon): 41.5 µM | TGI (T-47D breast): > 100 µM | TGI (SW-620 colon): > 100 µM | TGI (RXF 393 renal): 39.6 µM | TGI (SR leukemia): 78.5 µM | TGI (MOLT-4 leukemia): > 100 µM

COc1ccc(N(C(=O)OC(C)(C)C)[C@@H]2C(C)=C[C@H]([S@@](=O)c3ccc(C)cc3)[C@@H]3C(=O)N(C)C(=O)[C@@H]32)cc1
TGI (CCRF-CEM leukemia): > 100 µM | TGI (HS 578T breast): 42.9 µM | TGI (NCI-H522 lung): 18.5 µM | TGI (786-0 renal): 37.9 µM | TGI (HCT-116 colon): 35.9 µM | TGI (T-47D breast): 99.8 µM | TGI (SW-620 colon): 45.5 µM | TGI (RXF 393 renal): 30.4 µM | TGI (MOLT-4 leukemia): 94.6 µM

OC(Cn1cncn1)(Cn1cncn1)c1ccc(Cl)cc1Cl
TGI (CCRF-CEM leukemia): > 100 µM | TGI (NCI-H522 lung): > 100 µM | TGI (786-0 renal): > 100 µM | TGI (HCT-116 colon): > 100 µM | TGI (SW-620 colon): > 100 µM | TGI (RXF 393 renal): > 100 µM | TGI (SR leukemia): > 100 µM | TGI (MOLT-4 leukemia): > 100 µM

Nc1nc(Cl)cc(NCC2(CO)CC(CCCCc3ccccc3)C2)n1 (stereo unspecified)
TGI (CCRF-CEM leukemia): > 100 µM | TGI (HS 578T breast): > 100 µM | TGI (NCI-H522 lung): > 100 µM | TGI (786-0 renal): > 100 µM | TGI (HCT-116 colon): > 100 µM | TGI (SW-620 colon): > 100 µM | TGI (RXF 393 renal): > 100 µM | TGI (SR leukemia): > 100 µM | TGI (MOLT-4 leukemia): > 100 µM

COc1cccc2c1C(=O)c1c(O)c3c(c(O)c1C2=O)C[C@@](O)(C(C)=O)C[C@@H]3OC1CC(N)C(O)C(C)O1 (stereo partly specified)
GI50 (NCI-H522 lung): < 0.0155 µM | GI50 (HCT-116 colon): < 0.0135 µM | GI50 (T-47D breast): < 0.0176 µM | GI50 (RXF 393 renal): 0.0602 µM | TGI (SR leukemia): 0.239 µM and 0.908 µM

CC(C)(C)[Si](C)(C)OCC1OC(n2ccc(=O)[nH]c2=O)C(O[Si](C)(C)C(C)(C)C)/C1=N/O (stereo unspecified)
TGI (CCRF-CEM leukemia): 27.3 µM | TGI (786-0 renal): 8.23 µM | TGI (HCT-116 colon): 7.11 µM | TGI (T-47D breast): 24.2 µM | TGI (SW-620 colon): > 37.8 µM | TGI (RXF 393 renal): 23.3 µM | TGI (SR leukemia): 7.28 µM | TGI (MOLT-4 leukemia): 6.57 µM

CC(C)(C)NCC(O)COc1cccc2[nH]c(C#N)cc12 (stereo unspecified)
TGI (HS 578T breast): > 100 µM | TGI (NCI-H522 lung): > 100 µM | TGI (786-0 renal): > 100 µM | TGI (HCT-116 colon): > 100 µM | TGI (T-47D breast): > 100 µM | TGI (SW-620 colon): > 100 µM | TGI (SR leukemia): > 100 µM | TGI (MOLT-4 leukemia): > 100 µM

CC1(C)OC1CC/C(=C/CBr)CBr (stereo unspecified)
TGI (CCRF-CEM leukemia): 34.1 µM | TGI (HS 578T breast): 47.7 µM | TGI (NCI-H522 lung): 23.5 µM | TGI (786-0 renal): 28.7 µM | TGI (HCT-116 colon): 33 µM | TGI (SW-620 colon): 28.7 µM | TGI (RXF 393 renal): 31.2 µM | TGI (SR leukemia): 64.6 µM | TGI (MOLT-4 leukemia): 57.9 µM

c1ccc(/C(=N/Nc2cnccn2)c2ncccn2)cc1
TGI (CCRF-CEM leukemia): > 100 µM | TGI (HS 578T breast): > 100 µM | TGI (NCI-H522 lung): 44.7 µM | TGI (786-0 renal): > 100 µM | TGI (HCT-116 colon): > 100 µM | TGI (SW-620 colon): > 100 µM | TGI (RXF 393 renal): > 100 µM | TGI (SR leukemia): > 100 µM | TGI (MOLT-4 leukemia): > 100 µM

Cc1ccc(S(=O)/C=C(\NC(=O)OCc2ccccc2)C(F)(F)F)cc1 (stereo unspecified)
TGI (CCRF-CEM leukemia): 72.4 µM | TGI (NCI-H522 lung): > 100 µM | TGI (786-0 renal): > 100 µM | TGI (HCT-116 colon): > 100 µM | TGI (T-47D breast): > 100 µM | TGI (SW-620 colon): > 100 µM | TGI (RXF 393 renal): > 100 µM | TGI (SR leukemia): > 100 µM | TGI (MOLT-4 leukemia): > 100 µM

CCOC(=O)Cc1csc(/N=C\c2c(O)c3ccccc3oc2=O)n1
TGI (CCRF-CEM leukemia): 85.9 µM | TGI (HS 578T breast): > 100 µM | TGI (NCI-H522 lung): 42.4 µM | TGI (786-0 renal): > 100 µM | TGI (HCT-116 colon): > 100 µM | TGI (SW-620 colon): > 100 µM | TGI (RXF 393 renal): > 100 µM | TGI (SR leukemia): 52 µM | TGI (MOLT-4 leukemia): 42.7 µM

CC1(C(O)c2ccccc2)CN(C(C)(C)C)C(=O)/C1=C\Sc1ccccc1 (stereo unspecified)
TGI (CCRF-CEM leukemia): > 100 µM | TGI (NCI-H522 lung): 22.9 µM | TGI (786-0 renal): > 100 µM | TGI (HCT-116 colon): > 100 µM | TGI (T-47D breast): > 100 µM | TGI (SW-620 colon): > 100 µM | TGI (SR leukemia): > 100 µM | TGI (MOLT-4 leukemia): > 100 µM

N#Cc1ccc(Nc2nc3nc[nH]c3c(=O)[nH]2)cc1
TGI (CCRF-CEM leukemia): > 100 µM | TGI (HS 578T breast): > 100 µM | TGI (NCI-H522 lung): > 100 µM | TGI (786-0 renal): > 100 µM | TGI (HCT-116 colon): > 100 µM | TGI (T-47D breast): > 100 µM | TGI (SW-620 colon): > 100 µM | TGI (SR leukemia): > 100 µM | TGI (MOLT-4 leukemia): > 100 µM

Fc1ccc(C(=NCc2ccccc2)N2CCOCC2)cc1
TGI (CCRF-CEM leukemia): > 100 µM | TGI (HS 578T breast): > 100 µM | TGI (786-0 renal): > 100 µM | TGI (HCT-116 colon): > 100 µM | TGI (SW-620 colon): > 100 µM | TGI (RXF 393 renal): > 100 µM | TGI (SR leukemia): > 100 µM | TGI (MOLT-4 leukemia): > 100 µM
